Tested on: Caenorhabditis elegans
Test: C. elegans fast killing assay on PGS/PG agar
Type: in vivo
Method: The rate of killing observed under these conditions is defined as “slow killing.” Briefly, under the slow killing conditions, 5 μl of an overnight liquid culture of PA14 is spread on the center of an NGM (or M9) agar plate and grown for 37° C. for 24 hours. The plates are then allowed to cool to room temperature for several hours. Worms at the fourth larval stage (L4) are added to the agar but not in contact with the bacterial lawn. The worms typically move toward the bacterial lawn and commence feeding. In contrast, when PA14 worms were grown on peptone-glucose-sorbitol (PGS), a richer medium of higher osmolarity, a different result was obtained. When L4 worms were placed on PGS plates, the worms became sluggish, then paralyzed, and then died within 4–24 hours (FIG. 5). Some worms died even before coming into direct contact with the bacterial lawn. This more rapid killing on PGS agar is termed “fast killing.”
Nematode Killing Assay. Worm killing by P. aeruginosa was performed in a plate assay. For the fast killing assay, 5 μl of an overnight King's B (King et al. (1954) J. Lab. Clin. Med. 44:301–307) culture of PA14, or the test strains, were spread on 3.5 cm diameter plates containing PGS or PG agar. A bacterial lawn of about 2 cm diameter grew in the center of plate after incubation at 37° C. for 24 hours. After cooling to room temperature (ranges from 4–12 hours after removal from 37° C. incubator), 40 worms were added to the agar. Unless otherwise stated all worm strains were cultured at 20° C., and the fourth larval (L4) stage was used. The experiments were performed in 3–4 replicates per strain. Bristol N2 was used as the wild-type strain and E. coli OP50 for the negative control. Plates seeded with worms were incubated in 25° C. Worm mortality was scored at various time points. A worm was considered dead when no movement was detectable when touched lightly with an eye-lash pick. Slow killing assays were performed generally as described above.

In the case of `[Cl][Fe]([Cl])[Cl]` [FeCl3], the “effect on PA14 fast killing of C. elegans (in words)” value (“effect on PA14 fast killing” below) (100 μM added to PGS) is reported as “significantly reduced killing”.
In the case of `OC[C@@H](O)[C@@H](O)[C@H](O)[C@@H](O)CO` [sorbitol], the “effect on PA14 fast killing” value (0.15 M added to Peptone-Glucose medium, compared to 0.1 M or no sorbitol) is reported as “significantly increased the rate of killing”.
EDDA was tested, and the “effect on PA14 fast killing” value (400 μM added to PGS) was “did not significantly affect fast killing”.
